Measured values taken from patent publication US8299056B2 (Signal Pharmaceuticals, LLC, priority 2008, dated 2012).
Read-outs that look alike come from different tables or passages of the source.

Target: T1, Syk (Homo sapiens, UniProt P43405)
T1 construct: purchased Carna Biosciences
Assay: Syk HTRF assay
Assay type: biochemical
In short: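 Read-out is the 665 nm/615 nm time-resolved fluorescence ratio after EDTA stop and Eu-anti-phosphotyrosine plus streptavidin-DyLight 647 detection. Reaction ran 1 h at room temperature with start mix of 87.5 μM ATP and 80 nM substrate peptide in pH 7.6 HEPES/MgCl2 buffer.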

[1] = IC50 activity level, read-out: Activity Level
[2] = activity levels A-D, read-out: Activity Level (IC50 in the Syk HTRF assay)
[3] = read-out: Activity Level (Syk HTRF assay IC50)

Row | IC50 [1] [nM] | IC50 [2] [nM] | Structure (SMILES) | other results
1 | 500 to 1000 | – | Cc1cc(Nc2nc3cccc(CC4CCOCC4)n3n2)cnc1N1CCOCC1 [Example 535, N-(5-methyl-6-morpholinopyridin-3-yl)-5-((tetrahydro-2H-pyran-4-yl)methyl)-[1,2,4]triazolo[1,5-a]pyridin-2-amine] | –
2 | 0.005 to 250 | – | c1ccc(Nc2nc3cccc(N[C@H]4CCCNC4)n3n2)cc1 [Example 507, (S)-N^2-phenyl-N^5-(piperidin-3-yl)-[1,2,4]triazolo[1,5-a]pyridin-2,5-diamine] | –
3 | – | 500 to 1000 | O=C1CCN(Cc2cccc3nc(Nc4ccc(C(F)(F)F)cc4)nn23)CCN1 [Example 269, 1-((2-(4-(trifluoromethyl)phenylamino)-[1,2,4]triazolo[1,5-a]pyridin-5-yl)methyl)-1,4-diazepan-5-one] | –
4 | – | 0.005 to 250 | Cc1cc(Nc2nc3cccc(Cc4ccnc(O)c4)n3n2)ccc1F [Example 219, 4-((2-(4-fluoro-3-methylphenylamino)-[1,2,4]triazolo[1,5-a]pyridin-5-yl)methyl)pyridin-2-ol] | –
5 | – | 500 to 1000 | CNC(=O)c1ccc(Nc2nc3cccc(N[C@H]4CC[C@@H](O)CC4)n3n2)cc1 [Example 386, cis-4-(5-(4-hydroxycyclohexylamino)-[1,2,4]triazolo[1,5-a]pyridin-2-ylamino)-N-methylbenzamide] | –
6 | – | 500 to 1000 | OC1CCN(c2cccc3nc(Nc4ccc(C(F)(F)F)cc4)nn23)CC1 [Example 345, 1-(2-(4-(trifluoromethyl)phenylamino)-[1,2,4]triazolo[1,5-a]pyridin-5-yl)piperidin-4-ol] | –
7 | – | 1000 to 10000 | OC1CCCC[C@H]1Nc1cccc2nc(Nc3ccc(C(F)(F)F)cc3)nn12 (stereo in doubt) [Example 270, (1S,2R)-2-(2-(4-(trifluoromethyl)phenylamino)-[1,2,4]triazolo[1,5-a]pyridin-5-ylamino)cyclohexanol] | –
8 | – | 0.005 to 250 | CNc1ccc(Nc2nc3cccc(N[C@H]4CC[C@@H](O)CC4)n3n2)cn1 [Example 295, cis-4-(2-(6-(methylamino)pyridin-3-ylamino)-[1,2,4]triazolo[1,5-a]pyridin-5-ylamino)cyclohexanol] | –
9 | – | 0.005 to 250 | OCCNc1cc(-c2cccc3nc(Nc4ccc(C(F)(F)F)cc4)nn23)ccn1 [Example 312, 2-(4-(2-(4-(trifluoromethyl)phenylamino)-[1,2,4]triazolo[1,5-a]pyridin-5-yl)pyridin-2-ylamino)ethanol] | –
10 | 0.005 to 250 | – | Cn1c(=O)[nH]c2cc(Nc3nc4cccc(NC5CCOCC5)n4n3)ccc21 [Example 569, 1-methyl-5-(5-(tetrahydro-2H-pyran-4-ylamino)-[1,2,4-]triazolo[1,5-a]pyridin-2-ylamino)-1H-benzo[d]imidazol-2(3H)-one] | –
11 | 0.005 to 250 | – | N[C@H]1CC[C@H](Oc2cccc3nc(Nc4ccc(C(F)(F)F)cc4)nn23)CC1 (stereo in doubt) [Example 422, trans-5-(4-aminocyclohexyloxy)-N-(4-(trifluoromethyl)phenyl)-[1,2,4]triazolo[1,5-a]pyridin-2-amine] | –
12 | 0.005 to 250 | – | CC1(C)C(=O)Nc2cc(Nc3nc4cccc(C(F)(F)C5CCOCC5)n4n3)ccc21 [Example 536, 6-(5-(difluoro(tetrahydro-2H-pyran-4-yl)methyl)-[1,2,4]triazolo[1,5-a]pyridin-2-ylamino)-3,3-dimethylindolin-2-one] | –
13 | 0.005 to 250 | – | Cc1n[nH]c2cc(Nc3nc4cccc(C(F)(F)C5CCOCC5)n4n3)ccc12 [Example 562, 5-(difluoro(tetrahydro-2H-pyran-4-yl)methyl)-N-(3-methyl-1H-indazol-6-yl)-[1,2,4]triazolo[1,5-a]pyridin-2-amine] | –
14 | 500 to 1000 | – | c1cc(CC2CCOCC2)n2nc(Nc3ccc(-c4nc[nH]n4)cc3)nc2c1 [Example 557, N-(4-(1H-1,2,4-triazolo-3-yl)phenyl)-5-((tetrahydro-2H-pyran-4-yl)methyl)-[1,2,4]triazolo[1,5-a]pyridin-2-amine] | –
15 | – | 250 to 500 | CN(C)c1ccc(Nc2nc3cccc(N[C@H]4CC[C@@H](O)CC4)n3n2)cn1 [Example 392, cis-4-(2-(6-(dimethylamino)pyridin-3-ylamino)-[1,2,4]triazolo[1,5-a]pyridin-5-ylamino)cyclohexanol] | –

The next lines start with the molecule.

Row | Structure (SMILES) | IC50 [1] [nM] | IC50 [2] [nM] | other results
16 | CNC(=O)c1ccc(Nc2nc3cccc(-c4ccc5nn[nH]c5c4)n3n2)cc1 [Example 432, 4-(5-(1H-benzo[d][1,2,3]triazol-6-yl)-[1,2,4]triazolo[1,5-a]pyridin-2-ylamino)-N-methylbenzamide] | 0.005 to 250 | – | –
17 | O=C1NCc2c1cccc2-c1cccc2nc(Nc3ccccc3)nn12 [Example 499, 4-(2-(phenylamino)-[1,2,4]triazolo[1,5-a]pyridin-5-yl)-isoindolin-1-one] | 1000 to 10000 | – | –
18 | NC(=O)c1nc2ccc(-c3cccc4nc(Nc5ccc(C(F)(F)F)cc5)nn34)cc2[nH]1 [Example 408, 6-(2-(4-(trifluoromethyl)phenylamino)-[1,2,4]triazolo[1,5-a]pyridin-5-yl)-1H-benzo[d]imidazole-2-carboxamide] | 0.005 to 250 | – | –
19 | CNC(=O)c1ccc(Nc2nc3cccc(-c4cccc(CN)c4)n3n2)cc1 [compound 33, 4-(5-(3-(aminomethyl)phenyl)-[1,2,4]triazolo[1,5-a]pyridin-2-ylamino)-N-methylbenzamide] | – | – | IC50 [3]: 0.005 to 250 nM
20 | CNC(=O)c1ccc(Nc2nc3cccc(-c4cccc(Cl)c4)n3n2)cc1 [compound 13, 4-(5-(3-chlorophenyl)-[1,2,4]triazolo[1,5-a]pyridin-2-ylamino)-N-methylbenzamide] | – | – | IC50 [3]: 0.005 to 250 nM
21 | Cn1cnc2ccc(Nc3nc4cccc(-c5ccccc5)n4n3)cc21 [compound 47, N-(1-methyl-1H-benzo[d]imidazol-6-yl)-5-phenyl-[1,2,4]triazolo[1,5-a]pyridin-2-amine] | – | – | IC50 [3]: 0.005 to 250 nM
22 | Nc1ccc(-c2cccc3nc(Nc4ccccc4)nn23)cc1 [compound 82, 5-(4-aminophenyl)-N-phenyl-[1,2,4]triazolo[1,5-a]pyridin-2-amine] | – | – | IC50 [3]: 250 to 500 nM
23 | CNC(=O)c1ccc(Nc2nc3cccc(-c4cccc(C(=O)O)c4)n3n2)cc1 [compound 30, 3-(2-(4-(methylcarbamoyl)phenylamino)-[1,2,4]triazolo[1,5-a]pyridin-5-yl)benzoic acid] | – | – | IC50 [3]: 1000 to 10000 nM
24 | N#Cc1cccc(Nc2nc3cccc(-c4ccccc4)n3n2)c1 [compound 66, 3-(5-phenyl-[1,2,4]triazolo[1,5-a]pyridin-2-ylamino)benzonitrile] | – | – | IC50 [3]: 1000 to 10000 nM
25 | O[C@H]1CC[C@@H](Nc2cccc3nc(Nc4ccnc(OCCN5CCCC5)c4)nn23)CC1 [Example 293, cis-4-(2-(2-(2-(pyrrolidiun-1-yl)ethoxy)pyridin-4-ylamino)-[1,2,4]triazolo[1,5-a]pyridin-5-ylamino)cyclohexanol] | – | 500 to 1000 | –
26 | O=C1CN(Cc2cccc3nc(Nc4ccc(N5CCC(O)CC5)nc4)nn23)CCN1 [Example 221, 4-((2-(6-(4-hydroxypiperidin-1-yl)pyridin-3-ylamino)-[1,2,4]triazolo[1,5-a]pyridin-5-yl)methyl)piperazin-2-one] | – | 500 to 1000 | –
27 | c1cc(CC2CCOCC2)n2nc(Nc3cnc4cn[nH]c4c3)nc2c1 [compound 106, N-(5-((tetrahydro-2H-pyran-4-yl)methyl)-[1,2,4]triazolo[1,5-a]pyridin-2-yl)-1H-pyrazolo[4,3-b]pyridin-6-amine] | – | – | IC50 [3]: 500 to 1000 nM
28 | NCCN1Cc2cc(Nc3nc4cccc(-c5ccccc5)n4n3)ccc2C1=O [compound 45, 2-(2-aminoethyl)-5-(5-phenyl-[1,2,4]triazolo[1,5-a]pyridin-2-ylamino)isoindolin-1-one] | – | – | IC50 [3]: 250 to 500 nM
